Experimental data from ChEMBL document CHEMBL1134583, “Synthesis and biological activity of D- and L-chiro-inositol 2,3,4,5-tetrakisphosphate: design of a novel and potent inhibitor of Ins(3,4,5,6)P4 1-kinase/Ins(1,3,4)P3 5/6-kinase” (J Med Chem, 2001).
Several values for one entry are separate records, joined by “and”; a condition that tells them apart may be missing. Identical values can stand only once.

Columns and labels:
[1] = Inhibition against Inositol (3,4,5,6)P4 1-kinase from bovine aorta; set-up: species or system Bos taurus
[2] = Inhibition of Inositol (3,4,5,6)P4 1-kinase from bovine aorta; set-up: species or system Bos taurus

Row | Structure (SMILES) | IC50 [1] | IC50 [2]
1 | O=P(O)(O)OC1C(O)[C@H](O)[C@H](OP(=O)(O)O)C(OP(=O)(O)O)[C@@H]1O (stereo not given in full) | 17 µM | 
2 | O=P(O)(O)OC1[C@H](O)C(O)C(OP(=O)(O)O)[C@H](O)[C@@H]1OP(=O)(O)O (stereo not given in full) | > 30 µM | 
3 | O=P(O)(O)O[C@@H]1[C@H](O)[C@H](O)[C@@H](OP(=O)(O)O)[C@H](OP(=O)(O)O)[C@H]1O [INS(1,4,5)P3] | 48 µM | 
4 | O=P(O)(O)OC1C(OP(=O)(O)O)[C@H](O)[C@H](O)C(OP(=O)(O)O)[C@@H]1O (stereo not given in full) | 0.17 µM and 0.2 µM | 0.28 µM
5 | O=P(O)(O)OC1C(OP(=O)(O)O)[C@H](O)[C@H](OP(=O)(O)O)C(O)[C@@H]1O (stereo not given in full) | 0.7 µM | 
6 | O=P(O)(O)OC1C(OP(=O)(O)O)[C@H](OP(=O)(O)O)[C@H](O)C(O)[C@@H]1O (stereo not given in full) | 4.2 µM | 

Now from value to compound:

Row | IC50 [1] | IC50 [2] | Structure (SMILES)
7 | 1.5 µM |  | O=P(O)(O)O[C@H]1[C@H](OP(=O)(O)O)[C@@H](OP(=O)(O)O)[C@@H](O)[C@H](O)[C@H]1OP(=O)(O)O (stereo in doubt; 3)
8 | > 30 µM |  | O=P(O)(O)O[C@@H]1[C@@H](OP(=O)(O)O)[C@@H](OP(=O)(O)O)[C@@H](O)[C@@H](O)[C@@H]1OP(=O)(O)O
9 | 1.6 µM |  | O=P(O)(O)O[C@H]1[C@H](OP(=O)(O)O)[C@@H](OP(=O)(O)O)[C@@H](O)[C@H](O)[C@H]1OP(=O)(O)O (stereo in doubt; 12)
10 | 15 µM |  | O=P(O)(O)OC1C(OP(=O)(O)O)[C@H](OP(=O)(O)O)[C@H](OP(=O)(O)O)C(OP(=O)(O)O)[C@@H]1O (stereo not given in full) [IONOSITOL (1,3,4,5,6) P5]
11 | 14.5 µM |  | O=P(O)(O)OC1C(OP(=O)(O)O)[C@@H](O)[C@H](OP(=O)(O)O)C(OP(=O)(O)O)[C@@H]1O (stereo not given in full)
12 | 9 µM |  | O=P(O)(O)O[C@H]1[C@H](O)[C@@H](OP(=O)(O)O)[C@H](OP(=O)(O)O)[C@@H](OP(=O)(O)O)[C@H]1O (stereo in doubt; 14)
13 | > 30 µM |  | O=P(O)(O)O[C@@H]1[C@@H](OP(=O)(O)O)[C@@H](OP(=O)(O)O)[C@H](O)[C@@H](O)[C@@H]1OP(=O)(O)O
14 | 16.7 µM |  | O=P(O)(O)O[C@H]1[C@H](O)[C@@H](OP(=O)(O)O)[C@H](OP(=O)(O)O)[C@@H](OP(=O)(O)O)[C@H]1O (stereo in doubt; 13)
